Source: ChEMBL document CHEMBL5584246, “Novel dihydropyrimidines as promising EGFR & HER2 inhibitors: Insights from experimental and computational studies” (Eur J Med Chem, 2024)

tested on: MCF7; assay: Cytotoxicity against human MCF7 cells assessed as inhibition of cell growth measured after 3 days by MTT assay; type: functional, cell-based; details: MCF7, 72 h

SMILES | IC50 [µM]
CCOc1cc(C2NC(=O)NC(C)=C2C(=O)Nc2ccc(OC)cc2OC)ccc1O (stereo not given) | 21
COc1ccc(C2NC(=S)NC(C)=C2C(=O)Nc2ccc(OC)cc2OC)cc1 (stereo not given) | 28.1
COc1ccc(NC(=O)C2=C(C)NC(=S)NC2c2ccc(O)c(OC)c2)c(OC)c1 (stereo not given) | 20.3
COc1ccc(NC(=O)C2=C(C)NC(=S)NC2c2ccccc2O)c(OC)c1 (stereo not given) | 32.1
COc1ccc(NC(=O)C2=C(C)NC(=O)NC2c2ccc(Cl)cc2)c(OC)c1 (stereo not given) | 32.4
COc1ccc(NC(=O)C2=C(C)NC(=S)NC2c2ccc(OC)c(OC)c2)c(OC)c1 (stereo not given) | 17.3
COc1ccc(NC(=O)C2=C(C)NC(=O)NC2c2ccc(OCc3ccccc3)c(OC)c2)c(OC)c1 (stereo not given) | 9.38
COc1ccc(NC(=O)C2=C(C)NC(=O)NC2c2ccc(Br)cc2)c(OC)c1 (stereo not given) | 31.6
COc1ccc(NC(=O)C2=C(C)NC(=S)NC2c2ccccc2)c(OC)c1 (stereo not given) | 45.3
COc1ccc(NC(=O)C2=C(C)NC(=O)NC2c2ccc(N(C)C)cc2)c(OC)c1 (stereo not given) | 19.5
COc1ccc(NC(=O)C2=C(C)NC(=O)NC2c2ccccc2O)c(OC)c1 (stereo not given) | 30.1
COc1ccc(NC(=O)C2=C(C)NC(=O)NC2c2ccco2)c(OC)c1 (stereo not given) | 27.4
CS(=O)(=O)CCNCc1ccc(-c2ccc3ncnc(Nc4ccc(OCc5cccc(F)c5)c(Cl)c4)c3c2)o1 [LAPATINIB] | 3.38
COc1ccc(NC(=O)C2=C(C)NC(=O)NC2c2cccc(O)c2)c(OC)c1 (stereo not given) | 30.4
COc1ccc(NC(=O)C2=C(C)NC(=S)NC2c2ccc(Cl)cc2)c(OC)c1 (stereo not given) | 38.7
COc1ccc(NC(=O)C2=C(C)NC(=O)NC2)c(OC)c1 | 81.5
COc1ccc(NC(=O)C2=C(C)NC(=S)NC2c2ccc(O)cc2)c(OC)c1 (stereo not given) | 28.6
COc1ccc(NC(=O)C2=C(C)NC(=O)NC2c2c[nH]c3ccccc23)c(OC)c1 (stereo not given) | 20.2

tested on: not listed separately; assay: Cytotoxicity against African green monkey Vero cells assessed as inhibition of cell growth measured after 3 days by MTT assay; type: toxicity, cell-based; details: African green monkey (Chlorocebus sabaeus)

SMILES | IC50 at 3 days [µM]
CCOc1cc(C2NC(=O)NC(C)=C2C(=O)Nc2ccc(OC)cc2OC)ccc1O (stereo not given) | 58.2
COc1ccc(C2NC(=S)NC(C)=C2C(=O)Nc2ccc(OC)cc2OC)cc1 (stereo not given) | 32.8
COc1ccc(NC(=O)C2=C(C)NC(=S)NC2c2ccc(O)c(OC)c2)c(OC)c1 (stereo not given) | 42.5
COc1ccc(NC(=O)C2=C(C)NC(=S)NC2c2ccccc2O)c(OC)c1 (stereo not given) | 60.4
COc1ccc(NC(=O)C2=C(C)NC(=O)NC2c2ccc(Cl)cc2)c(OC)c1 (stereo not given) | 62.7
COc1ccc(NC(=O)C2=C(C)NC(=S)NC2c2ccc(OC)c(OC)c2)c(OC)c1 (stereo not given) | 43.9
COc1ccc(NC(=O)C2=C(C)NC(=O)NC2c2ccc(OCc3ccccc3)c(OC)c2)c(OC)c1 (stereo not given) | 18.4
COc1ccc(NC(=O)C2=C(C)NC(=O)NC2c2ccc(Br)cc2)c(OC)c1 (stereo not given) | 49.4
COc1ccc(NC(=O)C2=C(C)NC(=S)NC2c2ccccc2)c(OC)c1 (stereo not given) | 53.4
COc1ccc(NC(=O)C2=C(C)NC(=O)NC2c2ccc(N(C)C)cc2)c(OC)c1 (stereo not given) | 53.1
COc1ccc(NC(=O)C2=C(C)NC(=O)NC2c2ccccc2O)c(OC)c1 (stereo not given) | 45.3
COc1ccc(NC(=O)C2=C(C)NC(=O)NC2c2ccco2)c(OC)c1 (stereo not given) | 62.4
CS(=O)(=O)CCNCc1ccc(-c2ccc3ncnc(Nc4ccc(OCc5cccc(F)c5)c(Cl)c4)c3c2)o1 [LAPATINIB] | 19.3
COc1ccc(NC(=O)C2=C(C)NC(=O)NC2c2cccc(O)c2)c(OC)c1 (stereo not given) | 55.7
COc1ccc(NC(=O)C2=C(C)NC(=S)NC2c2ccc(Cl)cc2)c(OC)c1 (stereo not given) | 48.3
COc1ccc(NC(=O)C2=C(C)NC(=O)NC2)c(OC)c1 | 87.2
COc1ccc(NC(=O)C2=C(C)NC(=S)NC2c2ccc(O)cc2)c(OC)c1 (stereo not given) | 40
COc1ccc(NC(=O)C2=C(C)NC(=O)NC2c2c[nH]c3ccccc23)c(OC)c1 (stereo not given) | 42.6

tested on: not listed separately; assay: Inhibition of EGFR expression in human MCF7 cells assessed as negative expression region (M1) at 25 nM incubated for 24 hrs by flow cytometry analysis (reference value: 0.66%); type: functional; details: not given

SMILES | inhibition at 0.025 µM [%]
COc1ccc(NC(=O)C2=C(C)NC(=O)NC2c2ccc(OCc3ccccc3)c(OC)c2)c(OC)c1 (stereo not given) | 37.6

tested on: not listed separately; assay: Inhibition of EGFR expression in human MCF7 cells assessed as negative expression region (M1) at 50 nM incubated for 24 hrs by flow cytometry analysis (reference value: 0.66%); type: functional; details: not given

SMILES | inhibition at 0.05 µM [%]
COc1ccc(NC(=O)C2=C(C)NC(=O)NC2c2ccc(OCc3ccccc3)c(OC)c2)c(OC)c1 (stereo not given) | 66.7

tested on: not listed separately; assay: Inhibition of EGFR expression in human MCF7 cells assessed as negative expression region (M1) at 100 nM incubated for 24 hrs by flow cytometry analysis (reference value: 0.66%); type: functional; details: not given

SMILES | inhibition at 0.1 µM [%]
COc1ccc(NC(=O)C2=C(C)NC(=O)NC2c2ccc(OCc3ccccc3)c(OC)c2)c(OC)c1 (stereo not given) | 84.3
CS(=O)(=O)CCNCc1ccc(-c2ccc3ncnc(Nc4ccc(OCc5cccc(F)c5)c(Cl)c4)c3c2)o1 [LAPATINIB] | 94.3

tested on: not listed separately; assay: Inhibition of EGFR expression in human MCF7 cells assessed as negative expression region (M1) at 500 nM incubated for 24 hrs by flow cytometry analysis (reference value: 0.66%); type: functional; details: not given

SMILES | inhibition at 0.5 µM [%]
COc1ccc(NC(=O)C2=C(C)NC(=O)NC2c2ccc(OCc3ccccc3)c(OC)c2)c(OC)c1 (stereo not given) | 91.1

tested on: not listed separately; assay: Inhibition of EGFR expression in human MCF7 cells assessed as negative expression region (M1) at 1000 nM incubated for 24 hrs by flow cytometry analysis (reference value: 0.66%); type: functional; details: not given

SMILES | inhibition at 1 µM [%]
COc1ccc(NC(=O)C2=C(C)NC(=O)NC2c2ccc(OCc3ccccc3)c(OC)c2)c(OC)c1 (stereo not given) | 98.6

tested on: not listed separately; assay: Inhibition of EGFR expression in human MCF7 cells assessed as positive expression region (M2) at 25 nM incubated for 24 hrs by flow cytometry analysis (reference value: 99.36%); type: functional; details: not given

SMILES | inhibition at 0.025 µM [%]
COc1ccc(NC(=O)C2=C(C)NC(=O)NC2c2ccc(OCc3ccccc3)c(OC)c2)c(OC)c1 (stereo not given) | 63.2

tested on: not listed separately; assay: Inhibition of EGFR expression in human MCF7 cells assessed as positive expression region (M2) at 50 nM incubated for 24 hrs by flow cytometry analysis (reference value: 99.36%); type: functional; details: not given

SMILES | inhibition at 0.05 µM [%]
COc1ccc(NC(=O)C2=C(C)NC(=O)NC2c2ccc(OCc3ccccc3)c(OC)c2)c(OC)c1 (stereo not given) | 33.8

tested on: not listed separately; assay: Inhibition of EGFR expression in human MCF7 cells assessed as positive expression region (M2) at 100 nM incubated for 24 hrs by flow cytometry analysis (reference value: 99.36%); type: functional; details: not given

SMILES | inhibition at 0.1 µM [%]
COc1ccc(NC(=O)C2=C(C)NC(=O)NC2c2ccc(OCc3ccccc3)c(OC)c2)c(OC)c1 (stereo not given) | 16.1
CS(=O)(=O)CCNCc1ccc(-c2ccc3ncnc(Nc4ccc(OCc5cccc(F)c5)c(Cl)c4)c3c2)o1 [LAPATINIB] | 5.88

tested on: not listed separately; assay: Inhibition of EGFR expression in human MCF7 cells assessed as positive expression region (M2) at 500 nM incubated for 24 hrs by flow cytometry analysis (reference value: 99.36%); type: functional; details: not given

SMILES | inhibition at 0.5 µM [%]
COc1ccc(NC(=O)C2=C(C)NC(=O)NC2c2ccc(OCc3ccccc3)c(OC)c2)c(OC)c1 (stereo not given) | 9.15

tested on: not listed separately; assay: Inhibition of EGFR expression in human MCF7 cells assessed as positive expression region (M2) at 1000 nM incubated for 24 hrs by flow cytometry analysis (reference value: 99.36%); type: functional; details: not given

SMILES | inhibition at 1 µM [%]
COc1ccc(NC(=O)C2=C(C)NC(=O)NC2c2ccc(OCc3ccccc3)c(OC)c2)c(OC)c1 (stereo not given) | 1.49

tested on: not listed separately; assay: Inhibition of HER2 expression in human MCF7 cells assessed as negative expression region (M1) at 25 nM incubated for 24 hrs by flow cytometry analysis (reference value: 0.98%); type: functional; details: not given

SMILES | inhibition at 0.025 µM [%]
COc1ccc(NC(=O)C2=C(C)NC(=O)NC2c2ccc(OCc3ccccc3)c(OC)c2)c(OC)c1 (stereo not given) | 57.5

tested on: not listed separately; assay: Inhibition of HER2 expression in human MCF7 cells assessed as negative expression region (M1) at 50 nM incubated for 24 hrs by flow cytometry analysis (reference value: 0.98%); type: functional; details: not given

SMILES | inhibition at 0.05 µM [%]
COc1ccc(NC(=O)C2=C(C)NC(=O)NC2c2ccc(OCc3ccccc3)c(OC)c2)c(OC)c1 (stereo not given) | 77.9

tested on: not listed separately; assay: Inhibition of HER2 expression in human MCF7 cells assessed as negative expression region (M1) at 100 nM incubated for 24 hrs by flow cytometry analysis (reference value: 0.98%); type: functional; details: not given

SMILES | inhibition at 0.1 µM [%]
COc1ccc(NC(=O)C2=C(C)NC(=O)NC2c2ccc(OCc3ccccc3)c(OC)c2)c(OC)c1 (stereo not given) | 88.7
CS(=O)(=O)CCNCc1ccc(-c2ccc3ncnc(Nc4ccc(OCc5cccc(F)c5)c(Cl)c4)c3c2)o1 [LAPATINIB] | 93

tested on: not listed separately; assay: Inhibition of HER2 expression in human MCF7 cells assessed as negative expression region (M1) at 500 nM incubated for 24 hrs by flow cytometry analysis (reference value: 0.98%); type: functional; details: not given

SMILES | inhibition at 0.5 µM [%]
COc1ccc(NC(=O)C2=C(C)NC(=O)NC2c2ccc(OCc3ccccc3)c(OC)c2)c(OC)c1 (stereo not given) | 95

tested on: not listed separately; assay: Inhibition of HER2 expression in human MCF7 cells assessed as negative expression region (M1) at 1000 nM incubated for 24 hrs by flow cytometry analysis (reference value: 0.98%); type: functional; details: not given

SMILES | inhibition at 1 µM [%]
COc1ccc(NC(=O)C2=C(C)NC(=O)NC2c2ccc(OCc3ccccc3)c(OC)c2)c(OC)c1 (stereo not given) | 96.9

tested on: not listed separately; assay: Inhibition of HER2 expression in human MCF7 cells assessed as positive expression region (M2) at 25 nM incubated for 24 hrs by flow cytometry analysis (reference value: 99.09%); type: functional; details: not given

SMILES | inhibition at 0.025 µM [%]
COc1ccc(NC(=O)C2=C(C)NC(=O)NC2c2ccc(OCc3ccccc3)c(OC)c2)c(OC)c1 (stereo not given) | 43

tested on: not listed separately; assay: Inhibition of HER2 expression in human MCF7 cells assessed as positive expression region (M2) at 50 nM incubated for 24 hrs by flow cytometry analysis (reference value: 99.09%); type: functional; details: not given

SMILES | inhibition at 0.05 µM [%]
COc1ccc(NC(=O)C2=C(C)NC(=O)NC2c2ccc(OCc3ccccc3)c(OC)c2)c(OC)c1 (stereo not given) | 22.4

tested on: not listed separately; assay: Inhibition of HER2 expression in human MCF7 cells assessed as positive expression region (M2) at 100 nM incubated for 24 hrs by flow cytometry analysis (reference value: 99.09%); type: functional; details: not given

SMILES | inhibition at 0.1 µM [%]
COc1ccc(NC(=O)C2=C(C)NC(=O)NC2c2ccc(OCc3ccccc3)c(OC)c2)c(OC)c1 (stereo not given) | 11.6
CS(=O)(=O)CCNCc1ccc(-c2ccc3ncnc(Nc4ccc(OCc5cccc(F)c5)c(Cl)c4)c3c2)o1 [LAPATINIB] | 7.15

tested on: not listed separately; assay: Inhibition of HER2 expression in human MCF7 cells assessed as positive expression region (M2) at 500 nM incubated for 24 hrs by flow cytometry analysis (reference value: 99.09%); type: functional; details: not given

SMILES | inhibition at 0.5 µM [%]
COc1ccc(NC(=O)C2=C(C)NC(=O)NC2c2ccc(OCc3ccccc3)c(OC)c2)c(OC)c1 (stereo not given) | 5.16

tested on: not listed separately; assay: Inhibition of HER2 expression in human MCF7 cells assessed as positive expression region (M2) at 1000 nM incubated for 24 hrs by flow cytometry analysis (reference value: 99.09%); type: functional; details: not given

SMILES | inhibition at 1 µM [%]
COc1ccc(NC(=O)C2=C(C)NC(=O)NC2c2ccc(OCc3ccccc3)c(OC)c2)c(OC)c1 (stereo not given) | 3.21
